This note sets out measurements from ChEMBL document CHEMBL1130121, “Chromeno[3,4-c]pyridin-5-ones: selective human dopamine D4 receptor antagonists as potential antipsychotic agents” (J Med Chem, 1997).

Experiment [1] addresses T1, D(4) dopamine receptor (Homo sapiens, UniProt P21917).
T1 sequence (P21917 whole entry): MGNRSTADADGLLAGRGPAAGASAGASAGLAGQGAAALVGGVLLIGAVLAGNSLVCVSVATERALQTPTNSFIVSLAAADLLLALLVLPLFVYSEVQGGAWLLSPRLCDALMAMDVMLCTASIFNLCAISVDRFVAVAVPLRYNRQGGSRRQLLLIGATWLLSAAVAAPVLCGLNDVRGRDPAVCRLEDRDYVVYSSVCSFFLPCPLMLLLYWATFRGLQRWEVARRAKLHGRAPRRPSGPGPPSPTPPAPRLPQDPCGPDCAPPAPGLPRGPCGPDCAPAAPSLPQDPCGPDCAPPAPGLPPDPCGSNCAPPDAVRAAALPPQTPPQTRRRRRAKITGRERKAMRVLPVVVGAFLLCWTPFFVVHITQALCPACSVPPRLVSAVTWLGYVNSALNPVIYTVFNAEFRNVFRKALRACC
As to the kind of experiment: biochemical.
Description: Ability to displace [3H]spiperone from cloned human Dopamine receptor D4 expressed in CHO K-1 cells in vitro

Experiment [2] deals with T2, D(4) dopamine receptor (Homo sapiens) (UniProt P21917).
T2 sequence (whole entry): T1 sequence (P21917 whole entry)
Kind of experiment: Inhibition of mitogenic [3H]thymidine uptake in CHO 10001 cells expressing Dopamine receptor D4. The class given is functional, cell-based.

For experiment [3], the target named is D(3) dopamine receptor (Homo sapiens, UniProt P35462). Kind of experiment: biochemical.
Description: Ability to displace [3H]spiperone from human cloned Dopamine receptor D3 expressed in CHO K-1 cells in vitro.
Experiment [4] has as its target T3, 5-hydroxytryptamine receptor 1A (Rattus norvegicus, UniProt P19327).
T3 sequence (P19327 whole entry): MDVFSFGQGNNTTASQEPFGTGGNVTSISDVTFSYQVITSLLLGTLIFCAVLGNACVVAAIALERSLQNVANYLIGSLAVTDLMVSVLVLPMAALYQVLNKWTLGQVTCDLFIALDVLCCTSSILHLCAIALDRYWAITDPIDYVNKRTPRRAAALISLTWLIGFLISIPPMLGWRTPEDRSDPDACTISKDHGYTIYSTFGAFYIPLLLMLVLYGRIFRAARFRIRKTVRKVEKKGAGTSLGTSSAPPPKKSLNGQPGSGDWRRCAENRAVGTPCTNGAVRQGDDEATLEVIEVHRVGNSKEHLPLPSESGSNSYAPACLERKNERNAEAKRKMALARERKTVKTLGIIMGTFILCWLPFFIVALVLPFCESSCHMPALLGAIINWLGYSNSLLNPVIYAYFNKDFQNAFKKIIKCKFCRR
As to the kind of experiment: Binding affinity against rat brain 5-hydroxytryptamine 1A receptor.

Experiment [5] deals with T4, Adrenergic receptor alpha-2 (Rattus norvegicus, UniProt P22086+P19328+P22909).
T4 sequence (P22086 whole entry): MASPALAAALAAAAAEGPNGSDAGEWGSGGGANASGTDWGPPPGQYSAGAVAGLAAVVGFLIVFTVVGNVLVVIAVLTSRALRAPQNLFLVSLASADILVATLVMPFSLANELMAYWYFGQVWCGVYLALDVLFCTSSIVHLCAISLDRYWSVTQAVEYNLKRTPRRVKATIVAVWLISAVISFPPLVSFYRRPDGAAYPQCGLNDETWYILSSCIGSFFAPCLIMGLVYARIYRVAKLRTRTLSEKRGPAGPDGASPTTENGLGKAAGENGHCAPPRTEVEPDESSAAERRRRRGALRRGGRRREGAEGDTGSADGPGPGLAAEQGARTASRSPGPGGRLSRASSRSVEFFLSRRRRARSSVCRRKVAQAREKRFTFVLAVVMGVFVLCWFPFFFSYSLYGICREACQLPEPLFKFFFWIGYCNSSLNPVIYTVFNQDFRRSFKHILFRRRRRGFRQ
T4 sequence (P19328 whole entry): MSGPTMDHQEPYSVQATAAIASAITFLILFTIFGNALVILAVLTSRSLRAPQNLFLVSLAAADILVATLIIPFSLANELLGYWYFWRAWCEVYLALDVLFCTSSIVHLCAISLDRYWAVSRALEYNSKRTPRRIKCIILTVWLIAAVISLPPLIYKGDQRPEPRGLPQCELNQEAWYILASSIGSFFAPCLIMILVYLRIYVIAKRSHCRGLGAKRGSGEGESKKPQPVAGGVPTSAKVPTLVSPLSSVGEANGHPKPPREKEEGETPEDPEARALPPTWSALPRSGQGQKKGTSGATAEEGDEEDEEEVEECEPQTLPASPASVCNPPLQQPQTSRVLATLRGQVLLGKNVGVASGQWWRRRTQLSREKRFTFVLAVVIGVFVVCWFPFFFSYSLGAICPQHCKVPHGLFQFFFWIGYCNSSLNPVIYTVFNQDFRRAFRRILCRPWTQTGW
T4 sequence (P22909 whole entry): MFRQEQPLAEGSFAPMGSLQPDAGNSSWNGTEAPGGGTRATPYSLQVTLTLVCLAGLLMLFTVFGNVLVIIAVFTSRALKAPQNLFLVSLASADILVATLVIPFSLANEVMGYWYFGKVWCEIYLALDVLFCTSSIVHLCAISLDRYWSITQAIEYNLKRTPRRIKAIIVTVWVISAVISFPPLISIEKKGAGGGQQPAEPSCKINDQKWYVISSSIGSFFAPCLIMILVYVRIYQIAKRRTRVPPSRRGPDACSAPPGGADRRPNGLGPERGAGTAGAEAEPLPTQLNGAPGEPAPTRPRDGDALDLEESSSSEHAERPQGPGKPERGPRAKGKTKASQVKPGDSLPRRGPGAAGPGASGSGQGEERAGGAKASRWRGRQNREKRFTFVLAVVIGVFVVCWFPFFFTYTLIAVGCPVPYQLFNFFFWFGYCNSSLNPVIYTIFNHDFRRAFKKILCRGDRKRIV
As to the kind of experiment: Binding affinity against rat brain Alpha-2 adrenergic receptor.

For experiment [6], the target named is 5-hydroxytryptamine receptor 2A (Rattus norvegicus, UniProt P14842). Kind of experiment: Binding affinity against rat brain 5-hydroxytryptamine 2A receptor.
The target in experiment [7] is T5, Adrenergic receptor alpha-1 (Rattus norvegicus, UniProt P15823+P23944+P43140).
T5 sequence (P15823 whole entry): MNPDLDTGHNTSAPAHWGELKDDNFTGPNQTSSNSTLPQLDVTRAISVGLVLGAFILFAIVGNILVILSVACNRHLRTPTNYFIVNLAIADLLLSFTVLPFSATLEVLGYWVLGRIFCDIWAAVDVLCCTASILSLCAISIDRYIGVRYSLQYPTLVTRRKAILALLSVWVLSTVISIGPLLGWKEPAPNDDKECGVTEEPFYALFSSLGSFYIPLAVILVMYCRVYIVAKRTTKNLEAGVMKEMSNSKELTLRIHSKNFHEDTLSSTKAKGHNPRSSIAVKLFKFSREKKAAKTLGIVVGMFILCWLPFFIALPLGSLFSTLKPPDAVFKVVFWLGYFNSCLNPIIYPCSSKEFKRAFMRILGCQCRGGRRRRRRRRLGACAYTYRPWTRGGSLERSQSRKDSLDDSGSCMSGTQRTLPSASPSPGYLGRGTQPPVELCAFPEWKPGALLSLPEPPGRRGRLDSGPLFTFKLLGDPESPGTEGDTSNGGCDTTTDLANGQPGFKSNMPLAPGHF
T5 sequence (P23944 whole entry): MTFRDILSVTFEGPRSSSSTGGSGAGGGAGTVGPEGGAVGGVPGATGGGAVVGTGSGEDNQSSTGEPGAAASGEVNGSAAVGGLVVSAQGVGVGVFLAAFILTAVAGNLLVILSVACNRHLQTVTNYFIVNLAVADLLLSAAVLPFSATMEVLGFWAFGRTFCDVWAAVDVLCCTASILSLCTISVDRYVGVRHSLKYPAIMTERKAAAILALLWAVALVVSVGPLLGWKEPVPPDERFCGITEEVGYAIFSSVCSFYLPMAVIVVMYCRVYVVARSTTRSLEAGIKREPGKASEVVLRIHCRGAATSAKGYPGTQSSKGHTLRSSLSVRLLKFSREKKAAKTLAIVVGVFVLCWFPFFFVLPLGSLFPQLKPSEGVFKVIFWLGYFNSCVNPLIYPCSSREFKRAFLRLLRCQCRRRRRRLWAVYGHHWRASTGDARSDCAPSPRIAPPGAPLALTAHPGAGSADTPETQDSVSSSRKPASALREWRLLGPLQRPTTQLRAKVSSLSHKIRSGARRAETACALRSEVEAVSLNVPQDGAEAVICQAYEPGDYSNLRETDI
T5 sequence (P43140 whole entry): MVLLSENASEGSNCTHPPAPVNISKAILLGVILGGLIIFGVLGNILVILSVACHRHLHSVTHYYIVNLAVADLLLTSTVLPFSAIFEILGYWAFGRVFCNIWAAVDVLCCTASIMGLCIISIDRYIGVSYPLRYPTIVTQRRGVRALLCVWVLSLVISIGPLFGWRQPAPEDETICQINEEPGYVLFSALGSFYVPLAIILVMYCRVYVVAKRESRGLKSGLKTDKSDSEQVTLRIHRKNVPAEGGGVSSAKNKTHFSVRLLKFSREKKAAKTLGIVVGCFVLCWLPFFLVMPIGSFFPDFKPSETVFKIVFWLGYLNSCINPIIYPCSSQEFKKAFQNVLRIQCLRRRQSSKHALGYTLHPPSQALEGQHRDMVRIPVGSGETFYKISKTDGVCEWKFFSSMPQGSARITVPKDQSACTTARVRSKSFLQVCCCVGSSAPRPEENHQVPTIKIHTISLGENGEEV
Kind of experiment: Binding affinity against rat brain Alpha-1 adrenergic receptor.

Bounds are passed on as bounds.

Chain of D(3) dopamine receptor (P35462 whole entry): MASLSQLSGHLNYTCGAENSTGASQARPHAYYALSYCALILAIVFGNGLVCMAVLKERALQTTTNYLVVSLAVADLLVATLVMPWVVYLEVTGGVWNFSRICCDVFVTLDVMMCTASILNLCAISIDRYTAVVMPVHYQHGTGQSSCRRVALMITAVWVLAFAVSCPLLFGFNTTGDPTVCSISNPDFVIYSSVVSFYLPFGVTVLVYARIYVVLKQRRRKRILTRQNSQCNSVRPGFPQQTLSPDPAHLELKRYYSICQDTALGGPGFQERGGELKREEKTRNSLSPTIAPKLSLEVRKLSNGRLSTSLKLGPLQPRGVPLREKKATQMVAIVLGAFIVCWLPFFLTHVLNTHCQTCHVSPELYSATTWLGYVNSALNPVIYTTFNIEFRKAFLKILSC
Chain of 5-hydroxytryptamine receptor 2A (P14842 whole entry): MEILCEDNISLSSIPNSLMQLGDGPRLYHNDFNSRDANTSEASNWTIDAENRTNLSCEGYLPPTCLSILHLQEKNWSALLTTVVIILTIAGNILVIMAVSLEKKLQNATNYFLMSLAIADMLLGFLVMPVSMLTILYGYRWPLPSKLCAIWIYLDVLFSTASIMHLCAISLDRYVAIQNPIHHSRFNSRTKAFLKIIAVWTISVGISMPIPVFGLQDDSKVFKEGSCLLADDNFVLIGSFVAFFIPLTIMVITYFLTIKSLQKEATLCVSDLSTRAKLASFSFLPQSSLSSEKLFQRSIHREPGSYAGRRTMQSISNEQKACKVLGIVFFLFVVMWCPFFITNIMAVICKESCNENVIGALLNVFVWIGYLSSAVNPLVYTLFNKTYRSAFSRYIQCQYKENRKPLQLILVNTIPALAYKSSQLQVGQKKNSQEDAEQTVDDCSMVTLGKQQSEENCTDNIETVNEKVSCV

What is called Ki is a dissociation constant, usually derived from enzyme kinetics or from competition with a known ligand. Low values mean higher affinity, high ones lower affinity. Consider `COc1ccc2c3c(c(=O)oc2c1)CN(Cc1ccc(Cl)cc1)CC3`, for which the values for the Ki in experiment [1] and in experiment [3] were 8.7 nM and 2780 nM, respectively. The compound also displayed an Intrinsic activity in experiment [2] of 26.8%.
`COc1ccc2c3c(c(=O)oc2c1)CN(Cc1cccc(Cl)c1)CC3`: the Ki in experiment [1] is 17 nM. Besides, the Intrinsic activity in experiment [2] turned out to be 30.7%.
For the compound `COc1ccc2c3c(c(=O)oc2c1)CN(Cc1ccc([N+](=O)[O-])cc1)CC3`, the Intrinsic activity in experiment [2] is 25.2%. The compound further came in with a Ki in experiment [3] of over 3000 nM.
Compound `Cc1cc(O)c2c3c(c(=O)oc2c1)CN(Cc1ccccc1)CC3` yielded a Ki in experiment [1] of 145 nM.
Same read-out and setting: next, `COc1ccc2c3c(c(=O)oc2c1)CN(c1ccccc1)CC3`: over 3300 nM.
Compound `COc1ccc2c3c(c(=O)oc2c1)CN(Cc1ccc(C(F)(F)F)cc1)CC3` showed an Intrinsic activity in experiment [2] of 0%.
As to `Cc1ccc2c3c(c(=O)oc2c1)CN(Cc1ccc(F)cc1)CC3`, the Ki in experiment [1] amounted to 7.5 nM; in experiment [3], 2210 nM. The Intrinsic activity in experiment [2] was determined as 0%.
Compound `Cc1ccc2c3c(c(=O)oc2c1)CN(Cc1ccc(Cl)cc1)CC3` showed a Ki in experiment [1] of 11 nM.
`COc1ccc2c3c(c(=O)oc2c1)CN(Cc1ccc(F)cc1)CC3`: the figures for the Ki in experiment [1] and in experiment [3] were 4.3 nM and 548 nM, respectively. For the same compound, the Intrinsic activity in experiment [2] worked out at 35.2%.
`COc1ccc2c3c(c(=O)oc2c1)CN(Cc1ccccc1)CC3` yielded an Intrinsic activity in experiment [2] of 23.2%.
In the case of `COc1ccc2c3c(c(=O)oc2c1OC)CN(Cc1ccccc1)CC3`, the Ki was 16 nM in experiment [1] and 1300 nM in experiment [3].
In experiment [1], `COc1ccc2c3c(c(=O)oc2c1)CCN(Cc1ccccc1)C3` returned a Ki of over 3300 nM.
`Cc1ccc2c3c(c(=O)oc2c1)CN(Cc1ccccc1)CC3`: the Ki in experiment [4], in experiment [5], in experiment [6] and in experiment [7] was over 700 nM throughout. Moreover, the Intrinsic activity in experiment [2] was found to be 12.4%.
As for `COc1ccc2c3c(c(=O)oc2c1)CN(C(=O)c1ccccc1)CC3`, the affinity in experiment [1], expressed as Ki, was 420 nM.
Still for that read-out and setting: next, `COc1ccc2c3c(c(=O)oc2c1)CN(CCc1ccccc1)CC3`: 7.9 nM.
In turn, `COc1cc2oc(=O)c3c(c2cc1OC)CCN(Cc1ccc(Cl)cc1)C3` showed an Intrinsic activity in experiment [2] of 21.2%. This compound also had a Ki in experiment [3] of over 3000 nM.
Take `O=c1oc2cc(O)ccc2c2c1CN(Cc1ccc(Cl)cc1)CC2`: the Ki turned out to be 2.4 nM in experiment [1] and 317 nM in experiment [3]. The compound further yielded an Intrinsic activity in experiment [2] of 23.2%.
For `COc1ccc2c3c(c(=O)oc2c1)CN(Cc1ccc(C)cc1)CC3`, in experiment [2], the Intrinsic activity worked out at 10%.
